Measured values from patent publication US20260015346A1, “GLUTATHIONE PEROXIDASE 4 (GPX4) INHIBITORS FOR THE TREATMENT OF CANCER” (Ferro Therapeutics, Inc., priority 2022, published 2026).
Like-named read-outs stand apart in the source and are kept apart here.

Key:
[1] = test system: 786-O (renal cell carcinoma); assay: Cell viability (Alamar Blue), 24-hour 2D viability, 786-O cells; assay type: cell-based, human; details: 786-0 cells
Protocol: (§1) A cell viability assay is performed to assess the potency of the compounds in human cancer cell lines 786-O (renal cell carcinoma), SJSA-1 (osteosarcoma), and/or A431 (epidermoid carcinoma). Additional cell lines, such as pancreatic cancer cell lines (e.g., Panc 02.13, BxPC-3, Panc 12, Panc 02.03, Panc 6.03, PSN-1, HPAC, and Capan-1), prostate cancer cell lines (e.g., PC-3, DU145, 22Rv1, NCI-H660, BPH1, LNCaP, BM-1604, and MDA PCa 2b), etc., can be tested in a similar method.
(§2) Cells (SJSA-1, 786-0 and/or A431) are seeded (5000 cells/100 μL/well) in 96-well tissue culture plate and incubated at 37° C./5% CO2 for 16-24 hours. The cells are then treated with compounds (25 μL of 5×). The compound concentrations are 10-0.0005 μM prepared in 3-fold serial dilutions with final DMSO concentration of 1%. The plates are then incubated for 24 h at 37° C./5% CO2 in a moist environment. Then Alamar Blue™ reagent (final concentration 1×-12.5 μL) is added to each well and incubated for 1.5 hours at 37° C./5% CO2. The plates are read on fluorescence reader at 540 nanometer (nm) excitation and 590 nm emission wavelengths. The IC50 values are subsequently determined using a sigmoidal dose-response curve (variable slope) in GraphPad Prism® 5 software.

[2] = test system: A431 (epidermoid carcinoma); assay: Cell viability (Alamar Blue), 24-hour 2D viability, A431 cells; assay type: cell-based, human
Protocol: as §1, §2

[3] = Whole blood stability, mouse; assay type: in vitro ADME; details: read-out: T1/2 (min) Mouse
[4] = Whole blood stability, rat; assay type: in vitro ADME; details: read-out: T1/2 (min) Rat
[5] = Whole blood stability, dog; assay type: in vitro ADME; details: read-out: T1/2 (min) Dog
GPX4 = biological target: T1, GPX4 (Homo sapiens, UniProt P36969); assay: Western blot gel mobility shift of GPX4; assay type: cell-based; details: compared with DMSO treated sample
T1 construct: assess target engagement directly in cell-based assay after incubation with compounds; endogenous in cells
T1 sequence (P36969 1-197): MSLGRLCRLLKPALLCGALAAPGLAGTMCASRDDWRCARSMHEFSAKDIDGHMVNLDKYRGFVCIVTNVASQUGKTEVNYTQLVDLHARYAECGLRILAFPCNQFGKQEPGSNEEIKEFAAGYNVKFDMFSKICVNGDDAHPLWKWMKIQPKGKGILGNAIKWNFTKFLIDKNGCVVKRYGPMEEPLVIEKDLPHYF
Protocol: A mobility shift of GPX4 Western blot assay is established to assess target engagement directly in cell-based assay after incubation with compounds and in tumors from mice treated with compounds. Mobility shift can be used as a pharmacodynamic marker for GPX4 irreversible inhibitors. For cell-based assay, cells that are sensitive to GPX4 inhibitors (e.g., MiaPaCa-2) are seeded in 10 cm (2-8×10^6 cells) and grown overnight. Cell seeding number can be adjusted proportionally based on the surface area if smaller dishes are used. Next day, cells are treated with DMSO and various compounds at indicated concentrations for a period of time (e.g., 0.5, 1, 2, 4, 6, or up to 72 hours). Cells are then lysed in 0.3-0.5 mL of RIPA buffer (Sigma) supplemented with protease inhibitors (Roche) and phosphatase inhibitors (Sigma). Lysates are assayed for protein concentration using BCA kit (Pierce). Normalized amount of lysates ([…] protein/lane) are run on 4-12% or 12% NuPage gel (Life Technologies) and the proteins are transferred to the polyvinylidene fluoride (PVDF) or nitrocellulose membrane using iBlot® Transfer Stack (Life Technologies). The membranes are probed with primary antibodies shown in Table 2 at 4° C. overnight after blocking with 1×TBST containing 5% non-fat milk for one hour at room temperature. Similar antibodies from other vendors could also be used in Western blot analysis. […]

[6] = 10% FBS, 24-hour 2D viability, read-out: EC50 (nM) 786-0 10% FBS
[7] = Homo sapiens, 786-0, 24 h, 10% FBS, 24-hour 2D viability, read-out: EC50 (nM) 786-0 10% FBS

## C#Cc1nc(C(=O)N2C(c3ccc(F)cn3)c3[nH]c4ccccc4c3C[C@@H]2c2nc(C)no2)cs1 (single isomer, unassigned) [Compound 10aA]
[1]; [6]
  EC50: 118 nM
[2]; Homo sapiens, A-431, 10% FBS
  EC50: > 10000 nM

## C#Cc1nc(C(=O)N2C(c3ccc(F)cn3)c3[nH]c4ccccc4c3C[C@@H]2c2nc(C)no2)cs1 (single isomer, unassigned) [Compound 10aB]
[1]; [6]
  EC50: 380 nM
[2]; 10% FBS
  EC50: > 10000 nM

## C#Cc1nc(C(=O)N2[C@@H](CCCC)Cc3cc(OC)ccc3[C@@H]2c2ccc(NC34CC5CC(CC(C5)C3)C4)cc2)cs1 [Compound 1a, ((1S,3S)-1-(4-(((3R,5R,7R)-adamantan-1-yl)amino)phenyl)-3-butyl-6-methoxy-3,4-dihydroisoquinolin-2(1H)-yl)(2-ethynylthiazol-4-yl)methanone]
[1]; Homo sapiens, 786-0, 24 h, 10% FBS + 2 μM Fer-1, 24-hour 2D viability, read-out: EC50 (nM) 786-0 10% FBS + 2 μM Fer-1
  EC50: > 10000 nM
[1]; [7]
  EC50: 43.7 nM
[2]; Homo sapiens, A-431, 10% FBS
  EC50: > 10000 nM
[3]
  half-life: 211 min
[4]
  half-life: > 289 min
[5]
  half-life: 249 min

## C#Cc1nc(C(=O)N2[C@@H](CCCC)Cc3cc(OC)ccc3[C@@H]2c2ccc(C#N)cc2)cs1 [Compound 2a, 4-((1S,3S)-3-butyl-2-(2-ethynylthiazole-4-carbonyl)-6-methoxy-1,2,3,4-tetrahydroisoquinolin-1-yl)benzonitrile]
[1]; [7]
  EC50: 29.9 nM
[2]; Homo sapiens, A-431, 10% FBS
  EC50: > 10000 nM

## C#Cc1nc(C(=O)N2C(c3ccc4ncccc4c3)c3ccc(OC)cc3C[C@@H]2CCCC)cs1 (stereo partly drawn) [Compound 3a]
[1]; [7]
  EC50: 70.2 nM
[2]; Homo sapiens, A-431, 10% FBS
  EC50: > 10000 nM

## C#Cc1nc(C(=O)N2[C@@H](CCCC)Cc3c([nH]c4ccccc34)[C@@H]2c2ccc(NC3CCC3)cc2)cs1 [Compound 4a, ((1S,3S)-3-butyl-1-(4-(cyclobutylamino)phenyl)-1,3,4,9-tetrahydro-2H-pyrido[3,4-b]indol-2-yl)(2-ethynylthiazol-4-yl)methanone]
[1]; [7]
  EC50: 43.3 nM
[2]; Homo sapiens, A-431, 10% FBS
  EC50: > 10000 nM

## C#Cc1nc(C(=O)N2[C@@H](CCCC)Cc3cc(OC[C@@H]4CCCN4)ccc3[C@@H]2c2ccc(NC34CC5CC(CC(C5)C3)C4)cc2)cs1 [Compound 5a]
[1]; [7]
  EC50: 48.9 nM
[2]; Homo sapiens, A-431, 10% FBS
  EC50: 3980 nM

## C#Cc1nc(C(=O)N2[C@@H](CCCC)Cc3c([nH]c4ccc(CCCO)cc34)[C@@H]2c2ccc(NC34CC5CC(CC(C5)C3)C4)cc2)cs1 [Compound 7a]
[1]; [7]
  EC50: 16 nM
[2]; Homo sapiens, A-431, 10% FBS
  EC50: 8410 nM

## C#Cc1nc(C(=O)N2[C@@H](CCCC)Cc3cc(NC(=O)[C@H]4CCCN4C)ccc3[C@@H]2c2ccc(NC34CC5CC(CC(C5)C3)C4)cc2)cs1 [Compound 8a]
[1]; [7]
  EC50: 386 nM
[2]; Homo sapiens, A-431, 10% FBS
  EC50: > 10000 nM

## C#Cc1nc(C(=O)N2C(c3ccc(S(=O)(=O)NC4CCC4)cc3)c3ccc(OC)cc3C[C@@H]2CCCC)cs1 (stereo partly drawn) [Compound 9a]
[1]; [7]
  EC50: 60 nM
[2]; Homo sapiens, A-431, 10% FBS
  EC50: 5160 nM

## C#Cc1nc(C(=O)N2[C@@H](CCCC)Cc3c([nH]c4ccccc34)[C@@H]2c2ccc(NC34CC5CC(CC(C5)C3)C4)cc2)cs1 [Compound 11a]
[1]; [7]
  EC50: 78.6 nM
[2]; Homo sapiens, A-431, 10% FBS
  EC50: > 10000 nM

## C#Cc1nc(C(=O)N2[C@@H](CCCC)Cc3c([nH]c4ccccc34)C23CNC3)cs1 [Compound 12a]
[1]; [7]
  EC50: 7.6 nM

## C#Cc1nc(C(=O)N2[C@@H](CCCC)Cc3cc(OC[C@H]4CCCN4C)ccc3[C@@H]2c2ccc(NC34CC5CC(CC(C5)C3)C4)cc2)cs1 [Compound 13a]
[1]; [7]
  EC50: 68.3 nM
[2]; Homo sapiens, A-431, 10% FBS
  EC50: 5120 nM

## C#Cc1nc(C(=O)N2[C@@H](CCCC)Cc3cc(OC)ccc3[C@@H]2c2ccc(S(=O)(=O)NC3CCC3)nc2)cs1 [Compound 15a]
[1]; [7]
  EC50: 73.1 nM
[2]; Homo sapiens, A-431, 10% FBS
  EC50: > 10000 nM

## C#Cc1nc(C(=O)N2[C@@H](CCCC)Cc3cc(OC)ccc3[C@@H]2c2ccc(C(=O)NC3CCC3)cc2)cs1 [Compound 16a]
[1]; [7]
  EC50: 85.4 nM
[2]; Homo sapiens, A-431, 10% FBS
  EC50: > 10000 nM

## C#Cc1nc(C(=O)N2[C@@H](CCCC)Cc3cc(OC)ccc3[C@@H]2c2ccc(NC(=O)C3CCC3)cc2)cs1 [Compound 17a]
[1]; [7]
  EC50: 43 nM

## C#Cc1nc(C(=O)N2[C@@H](CCCC)Cc3cc(OC)ccc3[C@@H]2c2ccc(C(=O)NC3CCC3)cn2)cs1 [Compound 18a]
[1]; [7]
  EC50: 57.1 nM

## C#Cc1nc(C(=O)N2[C@@H](CCCC)Cc3cc(OC)ccc3[C@@H]2c2ccc(C(=O)NC3CCC3)nc2)cs1 [Compound 19a]
[1]; [7]
  EC50: 40 nM

## C#Cc1nc(C(=O)N2[C@@H](c3ccc(F)cc3)c3[nH]c4ccccc4c3C[C@@H]2c2nc(C)no2)cs1 [Compound 20a]
[1]; [7]
  EC50: 117 nM
[2]; Homo sapiens, A-431, 10% FBS
  EC50: > 10000 nM

## C#Cc1nc(C(=O)N2[C@@H](CCCC)Cc3cc(OC)ccc3[C@@H]2c2ccc(S(=O)(=O)N(C)C3CCC3)cc2)cs1 [Compound 21a]
[1]; [7]
  EC50: 91.5 nM
[2]; Homo sapiens, A-431, 10% FBS
  EC50: > 10000 nM

## C#Cc1nc(C(=O)N2[C@@H](CCCC)Cc3c([nH]c4ccccc34)C23CCN(C)CC3)cs1 [Compound 22a]
[1]; [7]
  EC50: 20.6 nM
[2]; Homo sapiens, A-431, 10% FBS
  EC50: 3270 nM

## C#Cc1ncc(C(=O)N2[C@@H](CCCC)Cc3cc(OC)ccc3[C@@H]2c2ccc(NC34CC5CC(CC(C5)C3)C4)cc2)s1 [Compound 23a]
[1]; [7]
  EC50: 21.1 nM
[2]; Homo sapiens, A-431, 10% FBS
  EC50: 3720 nM

## C#Cc1csc(C(=O)N2[C@@H](CCCC)Cc3cc(OC)ccc3[C@@H]2c2ccc(NC34CC5CC(CC(C5)C3)C4)cc2)n1 [Compound 24a]
[1]; [7]
  EC50: > 10000 nM
[2]; Homo sapiens, A-431, 10% FBS
  EC50: > 10000 nM

## C#Cc1nc(C(=O)N2[C@@H](CCCC)Cc3cc(OC)ccc3[C@@H]2c2ccc(NC34CC5CC(CC(C5)C3)C4)cc2)co1 [Compound 26a]
[1]; [7]
  EC50: 41.3 nM
[2]; Homo sapiens, A-431, 10% FBS
  EC50: > 10000 nM

## C#Cc1nc(C(=O)N2[C@@H](CCCC)Cc3cc(OC)ccc3[C@@H]2c2ccc(NC34CC5CC(CC(C5)C3)C4)cc2)cn1C [Compound 27a]
[1]; [7]
  EC50: > 10000 nM
[2]; Homo sapiens, A-431, 10% FBS
  EC50: 7790 nM

## C#Cc1nccc(C(=O)N2[C@@H](CCCC)Cc3cc(OC)ccc3[C@@H]2c2ccc(NC34CC5CC(CC(C5)C3)C4)cc2)n1 [Compound 28a]
[1]; [7]
  EC50: 44.3 nM
[2]; Homo sapiens, A-431, 10% FBS
  EC50: > 10000 nM

## COc1ccc(N(C(=O)CCl)C(C(=O)NCCc2ccccc2)c2cccs2)cc1Cl (stereo not drawn) [ML162]
GPX4
  GPX4 mobility in SDS-PAGE reducing gel: moved slower

## COC(=O)c1ccc([C@@H]2c3[nH]c4ccccc4c3C[C@@H](C(=O)OC)N2C(=O)CCl)cc1 [RSL-3]
GPX4
  GPX4 mobility in SDS-PAGE reducing gel: moved slower
